According to patent US20100190980A1, “PYRAZINAMIDE COMPOUND” (Taisho Pharmaceutical Co., Ltd, priority 2007, published 2010):

Key:
human liver GK = target: T1, human liver GK (Homo sapiens, UniProt P35557); experiment: GK Activation Test; format: biochemical; settings: 4 mM 14C-labeled glucose; for EC50: concentration activating GK to 50% of the maximum activation value
T1 construct: GST (Glutathione S-transferase) (N); made in house; host or cells: Escherichia coli
T1 sequence (P35557 1-466 isoform P35557-2): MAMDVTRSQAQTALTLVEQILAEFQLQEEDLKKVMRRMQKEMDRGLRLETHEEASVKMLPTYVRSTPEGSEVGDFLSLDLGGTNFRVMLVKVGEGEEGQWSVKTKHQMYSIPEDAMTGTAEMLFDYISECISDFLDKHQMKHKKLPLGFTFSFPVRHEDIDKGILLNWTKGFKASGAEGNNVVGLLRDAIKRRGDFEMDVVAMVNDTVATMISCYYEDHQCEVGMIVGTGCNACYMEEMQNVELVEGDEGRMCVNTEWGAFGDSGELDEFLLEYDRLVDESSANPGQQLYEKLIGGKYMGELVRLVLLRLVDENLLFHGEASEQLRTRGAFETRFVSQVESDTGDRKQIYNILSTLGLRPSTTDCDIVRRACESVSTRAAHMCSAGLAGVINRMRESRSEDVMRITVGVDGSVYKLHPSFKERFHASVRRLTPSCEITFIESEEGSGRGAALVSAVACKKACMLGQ
Description: A GK activation by a test compound was tested by partially modifying the method of Irwin A. Rose et al. (J. Biol. Chem. 1964 January; 239: 12-7).
The enzyme source used in this assay was human liver GK, which was allowed to express by Escherichia coli as a fusion protein having GST (Glutathione S-transferase) added to the amino terminal and purified by Glutathione Sepharose 4B (Amersham Biosciences).
The test was performed by using flat-bottom 96-well plates (Sumitomo Bakelite Co., Ltd). To each of the wells of plates, a dimethyl sulfoxide (DMSO) solution of a test compound and DMSO serving as a control were added so as to obtain a final DMSO concentration of 1%. Furthermore, 25 mM Hepes-KOH (pH=7.1), 25 mM KCl, 2 mM MgCl2, 2 mM ATP, 4 mM ^14C-labeled glucose (Amersham Pharmacia) and 1 mM DTT (dithiothreitol) (these concentrations were final concentrations) were added. Finally, human liver GK was added so as to obtain 0.24 μg/well. The reaction was initiated and carried out at room temperature.
Twenty minutes later, AG1-X4 resin (BioRad), which was suspended with 25 mM Hepes-KOH (pH=7.1), was added and allowed to bind a reaction product, a labeled glucose-6-phosphate. The whole quantity was transferred to a multi-screen plate (Millipore) and the resin was washed with water. Thereafter, labeled glucose-6-phosphate bound to the resin was eluted with a 0.5 M NaCl solution. The activity of the labeled glucose-6-phosphate eluted was measured and used as an index of GK activity.
Regarding the GK activity of a control group in a well in which DMSO alone was added as 100%, the GK activity activated by the test compound to a maximum was indicated as the maximum activation value (Emax value). Furthermore, the concentration of a test compound required for activating GK activity to 50% of the maximum activation value was indicated as an EC50 value.

SD rats = experiment: Blood Glucose Level-Lowering Effect in SD rats; format: in vivo, rat; settings: oral, 0.5% methyl cellulose group = 100%
Description: The effect of the compound of the present invention to decrease blood glucose level was investigated by use of SD rats.
SD rats were raised by free-feeding. From the caudal vein of 8-week old […], blood was taken and centrifugally separated to obtain the plasma. A blood glucose level of the plasma was measured by glucose CII test Wako. The rats were divided into groups of 6 rats so as to have the same average blood glucose level. In an agent administration group, a compound suspended in a 0.5% aqueous methyl cellulose solution was orally administered to the rats; whereas, in a control group, a 0.5% aqueous methylcellulose solution was orally administered. At 30 minutes, 60 minutes, 120 minutes, 240 minutes, 360 minutes and 480 minutes after the administration, blood was taken from the caudal vein of each rat. The plasma was centrifugally recovered and a blood glucose level was measured by use of glucose CII test Wako. Furthermore, a plasma insulin concentration was measured by an ultrasensitive rat insulin measuring kit (Morinaga Institute of Biological Science, Inc.). The blood glucose levels at individual time points were plotted to obtain a graph showing a change of blood glucose level.
Regarding the blood glucose level of the 0.5% methyl cellulose administration group as 100%, the blood glucose level of SD rats administrated with Compound No. 2 was indicated. In a 3 mg/kg administration group, the blood glucose level was 59% at 1 hour, 71% at 2 hours and 76% at 4 hours. Whereas, in a 10 mg/kg administration group, the blood glucose level was 53% at 1 hour, 68% at 2 hours, and 75% at 4 hours.

| Compound | EC50 (human liver GK) [nM] | further results |
| --- | --- | --- |
| Cn1ccc(NC(=O)c2nc(Sc3nnc[nH]3)cnc2Sc2ccc(F)cc2)n1 [Compound No. 2, 3-[(4-fluorophenyl)sulfanyl]-N-(1-methyl-1H-pyrazol-3-yl)-6-(4H-1,2,4-triazol-3-ylsulfanyl)pyrazine-2-carboxamide] | 104 | blood glucose level (SD rats; 3 mg/kg, at 1 hour): 59%; blood glucose level (SD rats; 3 mg/kg, at 2 hours): 71%; blood glucose level (SD rats; 3 mg/kg, at 4 hours): 76%; blood glucose level (SD rats; 10 mg/kg, at 1 hour): 53%; blood glucose level (SD rats; 10 mg/kg, at 2 hours): 68%; blood glucose level (SD rats; 10 mg/kg, at 4 hours): 75% |
| Cn1ccc(NC(=O)c2nc(Sc3nnc[nH]3)cnc2SC2CCCCC2)n1 [Compound No. 5, 3-(cyclohexylsulfanyl)-N-(1-methyl-1H-pyrazol-3-yl)-6-(4H-1,2,4-triazol-3-ylsulfanyl)pyrazine-2-carboxamide] | 171 | – |
| Cn1ccc(NC(=O)c2nc(Sc3nnc[nH]3)cnc2Sc2ccncc2)n1 [Compound No. 24, N-(1-methyl-1H-pyrazol-3-yl)-3-(pyridin-4-ylsulfanyl)-6-(4H-1,2,4-triazol-3-ylsulfanyl)pyrazine-2-carboxamide] | 110 | – |
| O=C(NC1=NCCS1)c1nc(Sc2nnc[nH]2)cnc1Sc1ccc(F)cc1 [Compound No. 25, N-(4,5-dihydro-1,3-thiazol-2-yl)-3-[(4-fluorophenyl)sulfanyl]-6-(4H-1,2,4-triazol-3-ylsulfanyl)pyrazine-2-carboxamide] | 365 | – |
| O=C(Nc1cnccn1)c1nc(Sc2nnc[nH]2)cnc1Sc1ccc(F)cc1 [Compound No. 29, 3-[(4-fluorophenyl)sulfanyl]-N-(pyrazin-2-yl)-6-(4H-1,2,4-triazol-3-ylsulfanyl)pyrazine-2-carboxamide] | 89.5 | – |
| COCCn1ccc(NC(=O)c2nc(Sc3nnc(C)[nH]3)cnc2Sc2ccc(F)cc2)n1 [Compound No. 30, 3-[(4-fluorophenyl)sulfanyl]-N-[1-(2-methoxyethyl)-1H-pyrazol-3-yl]-6-[(5-methyl-4H-1,2,4-triazol-3-yl)sulfanyl]pyrazine-2-carboxamide] | 397 | – |
| O=C(O)c1ccc(NC(=O)c2nc(Sc3nnc[nH]3)cnc2Sc2ccc(F)cc2)nc1 [Compound No. 35, 6-[({3-[(4-fluorophenyl)sulfanyl]-6-(4H-1,2,4-triazol-3-ylsulfanyl)pyrazin-2-yl}carbonyl)amino]pyridine-3-carboxylic acid] | 72.4 | – |
| Cc1nnc(Sc2cnc(Sc3ccc(F)cc3)c(C(=O)Nc3ccn(C)n3)n2)[nH]1 [Compound No. 38, 3-[(4-fluorophenyl)sulfanyl]-N-(1-methyl-1H-pyrazol-3-yl)-6-[(5-methyl-4H-1,2,4-triazol-3-yl)sulfanyl]pyrazine-2-carboxamide] | 117 | – |
| Cn1ccc(NC(=O)c2nc(Sc3nncs3)cnc2Sc2ccc(F)cc2)n1 [Compound No. 41, 3-[(4-fluorophenyl)sulfanyl]-N-(1-methyl-1H-pyrazol-3-yl)-6-(1,3,4-thiadiazol-2-ylsulfanyl)pyrazine-2-carboxamide] | 311 | – |
| COc1ccc(Sc2ncc(Sc3nnc[nH]3)nc2C(=O)Nc2cnccn2)cc1 [Compound No. 46, 3-[(4-methoxyphenyl)sulfanyl]-N-pyrazin-2-yl-6-(4H-1,2,4-triazol-3-ylsulfanyl)pyrazine-2-carboxamide] | 59.4 | – |
| CSc1ccc(Sc2ncc(Sc3nnc(N)[nH]3)nc2C(=O)Nc2cnccn2)cc1 [Compound No. 51, 6-[(5-amino-4H-1,2,4-triazol-3-yl)sulfanyl]-3-{[4-(methylsulfanyl)phenyl]sulfanyl}-N-pyrazin-2-ylpyrazine-2-carboxamide] | 131 | – |
| Cc1nnc(Sc2cnc(Sc3ccc(S(C)(=O)=O)cc3)c(C(=O)Nc3ccn(C)n3)n2)[nH]1 [Compound No. 52, N-(1-methyl-1H-pyrazol-3-yl)-3-{[4-(methylsulfonyl)phenyl]sulfanyl}-6-[(5-methyl-4H-1,2,4-triazol-3-yl)sulfanyl]pyrazine-2-carboxamide] | 128 | Emax (human liver GK; GK activity of DMSO control = 100%, 2 mM ATP, read-out: Emax (maximum activation value)): 883% |
